Test [1] has as its system anti-BSA-cmoCLA(ae) antibodies. As to the kind of experiment: Indirect competitive ELISA (icELISA), variants by coating antigen. It counts as binding, rabbit. The following applies: for CR: CLA = 100. On the procedure:
In present work, we investigated and compared several new-designed and previously established coating antigens, which were adsorbed on the 96-well Costar plates from 0.1 to 3.0 µg/mL solutions in CBB (pH 9.6) overnight at 4 °C. […] Solutions of these analytes (1 pg/mL–1 μg/mL) were added to wells of the plate along with anti-cmoCLA antibody in PBS-T with 1%BSA and incubated for 1 h at 25 °C in plate-shaker ST-3 L (ELMI Ltd. laboratory equipment, Riga, Latvia). GAR-HRP was used to detect antigen-antibody formed complexes for 1 h at 37 °C. The activity of the bound enzyme was detected using TMB-substrate mixture, and the intensity of colored product was read at 450 nm using a LisaScan spectrophotometer (Erba Mannheim, Czech Republic). […] The relative antibody-binding absorbance (B/B0) was determined for each concentration of analyte and used to construct a calibration curve as B/B0 versus the concentration. Structurally related macrolides CLA, ESE, ROX, AZI, DIR, TUL, and OLE were analyzed for their cross-reactions. […] Assay sensitivity, limit of detection (LOD), and working range of the assay were set as values of IC50, IC10, and IC20-IC80 range, respectively.
(In general: In an ELISA, binding on a coated surface is turned into a signal by an enzyme label.)

Test [2] relates to antibody to immunogen BSA-cmoCLA(ae). Also on record: method as in PMID 32693204. The following applies: breast milk, cited from earlier work; for CR: CLA = 100.
In test [3] the test system is antibody to immunogen BSA-cmoERY(ma). The following applies: milk; ERY = 100; cited from earlier work.
The test system is the same in test [4]. Details: method as in PMID 25308648. The following applies: milk; ERY = 100; cited from earlier work.
The subject of test [5] is anti-BSA-cmoCLA(ae) antibodies. Details: method as in PMID 25256165. The following applies: coating antigen GEL-cmoCLA(ae), cited from earlier work; for IC50: homologous; for CR: CLA = 100, recalculated from ref 18.
Test [6] deals with antibody to immunogen BSA-cmoCLA(ae). Details: method as in doi:10.1039/C9QM00429G. The note with it: milk, cited from earlier work; for CR: CLA = 100.
Setting [7] is: coating antigen OVA-aecAZI(dma).

≈ marks a conversion by molar mass, not a printed value. Where “and” joins values, the source holds several entries; their conditions need not be identical. Equal values may be shown once. Read-outs that look alike come from different tables or passages of the source.

The IC50 is the concentration that inhibits the measured activity by half. Regarding `CC[C@H]1OC(=O)[C@H](C)[C@@H](O[C@H]2C[C@@](C)(OC)[C@@H](O)[C@H](C)O2)[C@H](C)[C@@H](O[C@@H]2O[C@H](C)C[C@H](N(C)C)[C@H]2O)[C@](C)(O)C[C@@H](C)[C@@H]2N[C@@H](COCCOC)O[C@H]([C@H]2C)[C@]1(C)O` [DIR, dirithromycin], the IC50 in test [1] (coating antigen OVA(pi)-aecAZI) worked out at 0.096 ng/mL (≈ 0.115 nM); in test [1] (setting [7]) it was 0.544 ng/mL (≈ 0.651 nM); in test [1] (coating antigen OVA-aecAZI(ga)) it was 0.136 ng/mL (≈ 0.163 nM); in test [1] (coating antigen OVA-cmoERY(ae)), 0.554 ng/mL (≈ 0.663 nM). Also, the CR is on record as 45.8% in test [1] (coating antigen OVA(pi)-aecAZI); 28.9% in test [1] (setting [7]); 31.6% in test [1] (coating antigen OVA-aecAZI(ga)); 31% in test [1] (coating antigen OVA-cmoERY(ae)); 5.4% in test [2]; 157% in test [3]. In addition, the CR in test [4] was 157%.

For `CO[C@H]1C[C@H](O[C@H]2[C@H](C)[C@@H](O[C@@H]3O[C@H](C)C[C@H](N(C)C)[C@H]3O)[C@@H](C)C[C@@]3(CO3)C(=O)[C@H](C)[C@@H](O)[C@@H](C)[C@@H](C)OC(=O)[C@@H]2C)O[C@@H](C)[C@@H]1O` [OLE, oleandomycin], the half-inhibitory concentration (IC50) worked out at 45.64 ng/mL (≈ 66.3 nM) in test [1] (coating antigen OVA(pi)-aecAZI), 287.2 ng/mL (≈ 418 nM) in test [1] (setting [7]), 40.10 ng/mL (≈ 58.3 nM) in test [1] (coating antigen OVA-aecAZI(ga)) and 75.75 ng/mL (≈ 110 nM) in test [1] (coating antigen OVA-cmoERY(ae)). Moreover, the CR in test [1] (coating antigen OVA(pi)-aecAZI) turned out to be 0.1%; in test [1] (setting [7]) it was 0.05%; in test [1] (coating antigen OVA-aecAZI(ga)) it was 0.11%; in test [1] (coating antigen OVA-cmoERY(ae)), 0.2%.

Turning to `CC[C@H]1OC(=O)[C@H](C)[C@@H](O[C@H]2C[C@@](C)(OC)[C@@H](O)[C@H](C)O2)[C@H](C)[C@@H](O[C@@H]2O[C@H](C)C[C@H](N(C)C)[C@H]2O)[C@](C)(O)C[C@@H](C)/C(=N\OCOCCOC)[C@H](C)[C@@H](O)[C@]1(C)O` [ROX, roxithromycin], the IC50 in test [1] (coating antigen OVA(pi)-aecAZI) is 0.051 ng/mL (≈ 0.0609 nM); in test [1] (setting [7]), 0.157 ng/mL (≈ 0.188 nM); in test [1] (coating antigen OVA-aecAZI(ga)), 0.040 ng/mL (≈ 0.0478 nM); in test [1] (coating antigen OVA-cmoERY(ae)), 0.125 ng/mL (≈ 0.149 nM); in test [5], 0.14 ng/mL (≈ 0.167 nM). In addition, the CR in test [1] (coating antigen OVA(pi)-aecAZI) is on record as 86.3%; in test [1] (setting [7]), 100%; in test [1] (coating antigen OVA-aecAZI(ga)), 107.5%; in test [1] (coating antigen OVA-cmoERY(ae)), 137.6%; in test [2] it was 97.8%; in test [5], 125%. Also, the CR was 21.1% in test [6], 92% in test [3] and 14.8% in test [4].

As for `CCCNC[C@]1(O)[C@H](C)O[C@@H](O[C@H]2[C@H](C)[C@@H](O[C@@H]3O[C@H](C)C[C@H](N(C)C)[C@H]3O)[C@](C)(O)C[C@@H](C)CN[C@H](C)[C@@H](O)[C@](C)(O)[C@@H](CC)OC(=O)[C@@H]2C)C[C@@]1(C)OC` [TUL, tulathromycin], the 50% inhibitory concentration (IC50) in test [1] (coating antigen OVA(pi)-aecAZI) is 5.403 ng/mL (≈ 6.7 nM); in test [1] (setting [7]), 379.5 ng/mL (≈ 471 nM); in test [1] (coating antigen OVA-aecAZI(ga)), 134.8 ng/mL (≈ 167 nM); in test [1] (coating antigen OVA-cmoERY(ae)), 629.9 ng/mL (≈ 781 nM). Further, the CR is reported as 0.81% in test [1] (coating antigen OVA(pi)-aecAZI), 0.04% in test [1] (setting [7]) and 0.03% in test [1] (coating antigen OVA-aecAZI(ga)).

Consider `CC[C@H]1OC(=O)[C@H](C)[C@@H](O[C@H]2C[C@@](C)(OC)[C@@H](O)[C@H](C)O2)[C@H](C)[C@@H](O[C@@H]2O[C@H](C)C[C@H](N(C)C)[C@H]2O)[C@](C)(OC)C[C@@H](C)C(=O)[C@H](C)[C@@H](O)[C@]1(C)O` [CLA, clarithromycin], for which the IC50 in test [1] (coating antigen OVA(pi)-aecAZI) was 0.044 ng/mL (≈ 0.0588 nM); in test [1] (setting [7]), 0.157 ng/mL (≈ 0.21 nM); in test [1] (coating antigen OVA-aecAZI(ga)), 0.043 ng/mL (≈ 0.0575 nM); in test [1] (coating antigen OVA-cmoERY(ae)), 0.172 ng/mL (≈ 0.23 nM); in test [2], 0.45 ng/mL (≈ 0.602 nM); in test [5], 0.16 ng/mL (≈ 0.214 nM). Moreover, the IC50 in test [6] is listed as 0.16 ng/mL (≈ 0.214 nM). Also, the CR in test [1] (coating antigen OVA(pi)-aecAZI), in test [1] (setting [7]), in test [1] (coating antigen OVA-aecAZI(ga)), in test [1] (coating antigen OVA-cmoERY(ae)), in test [2] and in test [5] was 100% each time. Besides, the CR in test [6] is on record as 100%; in test [3] it was 26.7%; in test [4], 26.7%. In addition, the LOD is reported as 0.12 ng/mL in test [2] and 0.095 ng/mL in test [6].

Consider `CC[C@H]1OC(=O)[C@H](C)[C@@H](O[C@H]2C[C@@](C)(OC)[C@@H](O)[C@H](C)O2)[C@H](C)[C@@H](O[C@@H]2O[C@H](C)C[C@H](N(C)C)[C@H]2O)[C@](C)(O)C[C@@H](C)CN(C)[C@H](C)[C@@H](O)[C@]1(C)O` [AZI, azithromycin], for which the half-inhibitory concentration (IC50) in test [1] (coating antigen OVA(pi)-aecAZI) is reported as 0.107 ng/mL (≈ 0.143 nM); in test [1] (setting [7]) it was 1.220 ng/mL (≈ 1.63 nM); in test [1] (coating antigen OVA-aecAZI(ga)), 0.315 ng/mL (≈ 0.421 nM); in test [1] (coating antigen OVA-cmoERY(ae)) it was 1.990 ng/mL (≈ 2.66 nM); in test [5] it was 1.63 ng/mL (≈ 2.18 nM). The CR is 41% and 41.1% in test [1] (coating antigen OVA(pi)-aecAZI); 12.9% in test [1] (setting [7]); 13.7% in test [1] (coating antigen OVA-aecAZI(ga)); 9% and 8.6% in test [1] (coating antigen OVA-cmoERY(ae)); 5.7% in test [2]; 9% and 8.8% in test [5]. The CR in test [6] is 16.2%; in test [4], 0.9%. In addition, in test [1] (span over all ELISAs utilizing coated AZI conjugates), the “CR (detectability)” value was 13–41%.

In the case of `CCOC(=O)CCC(=O)O[C@H]1[C@H](O[C@@H]2[C@@H](C)[C@H](O[C@H]3C[C@@](C)(OC)[C@@H](O)[C@H](C)O3)[C@@H](C)C(=O)O[C@H](CC)[C@@](C)(O)[C@H](O)[C@@H](C)C(=O)[C@H](C)C[C@@]2(C)O)O[C@H](C)C[C@@H]1N(C)C` [ESE, erythromycin ethyl succinate], the half-maximal inhibitory concentration (IC50) was 0.074 ng/mL in test [1] (coating antigen OVA(pi)-aecAZI), 0.352 ng/mL in test [1] (setting [7]), 0.094 ng/mL in test [1] (coating antigen OVA-aecAZI(ga)) and 0.466 ng/mL in test [1] (coating antigen OVA-cmoERY(ae)). For the same molecule, the CR is 59.5% in test [1] (coating antigen OVA(pi)-aecAZI); 44.6% in test [1] (setting [7]); 45.7% in test [1] (coating antigen OVA-aecAZI(ga)); 37% and 36.9% in test [1] (coating antigen OVA-cmoERY(ae)); 43.7% in test [3].

The record behind these values is article PMC10605010, “Immunotechniques for the Group Determination of Macrolide Antibiotics Traces in the Environment Using a Volume-Mediated Sensitivity Enhancement Strategy” (Biosensors, 2023).
